Earlier results, collected in US20060030550A1, “Pharmaceutical formulations” (priority 2004, published 2006).

How the values were obtained:
[1] = topically active steroid
[2] = preclinical testing
[3] = R112 over placebo, recent study

Cc1cc(CCCOc2c(C)cc(-c3noc(C(F)(F)F)n3)cc2C)on1 [Pleconaril, 1,2,4-oxadiazole3-[3,5-Dimethyl-4-[3-(3-methyl-5-isoxazolyl)propoxy]phenyl]-5-(trifluoremethyl)]
activity against rhinoviruses (rhinoviruses): active against rhinoviruses

C[C@@H]1C[C@H]2[C@@H]3CCC4=CC(=O)C=C[C@]4(C)[C@@]3(Cl)[C@@H](O)C[C@]2(C)[C@@]1(OC(=O)c1ccco1)C(=O)CCl [Mometasone Furoate]
bioavailability [1]: not readily bioavailable

O=c1ccn([C@@H]2O[C@H](COP(=O)(O)OP(=O)(O)OP(=O)(O)OP(=O)(O)OC[C@H]3O[C@@H](n4ccc(=O)[nH]c4=O)[C@H](O)[C@@H]3O)[C@@H](O)[C@H]2O)c(=O)[nH]1 [diquafosol]
secretions of natural tear components [2]: increased

Oc1cccc(Nc2ncc(F)c(Nc3cccc(O)c3)n2)c1 [R112]
symptoms most closely associated with chronic nasal congestion (e.g. stuffy nose) (R112 over placebo): improved
absolute difference over placebo [3]: 9%
relative improvement over placebo [3]: greater than 20%
improvement from baseline measurements (baseline = prior to drug initiation): up to 38%
